{"source": "patent US12599562B2", "about": "“Nanocrystal microparticles of poorly soluble drugs and methods of production and use thereof” (The Board of Regents of the University of Oklahoma, priority 2017, dated 2026)", "key": {"[1]": {"assay": "Apparent maximum solubility of SHetA2 NCs and SHetA2 NC-MPs in PBS containing 0.05% SDS", "type": "physicochemical", "conditions": "aqueous with cosolvent or surfactant or cyclodextrin, thermodynamic from solid, at first 5 min, read-out: apparent maximum solubility (highest drug solubility)", "procedure": "SHetA2 NCs, SHetA2 MPs, and SHetA2 NC-MPs in PBS containing 0.05% SDS.\nApparent Maximum Solubility of SHetA2 NCs and SHetA2 NC-MPs\nThe apparent maximum solubility profiles of SHetA2 NCs, SHetA2 NC-MPs, unprocessed SHetA2 (i.e., unprocessed drug), and spray dried SHetA2 MPs (i.e., microparticulate amorphous drug) are shown in FIG. 8. […] SHetA2 NC-MPs and spray dried SHetA2 MPs followed a similar dissolution profile after 45 min. […] After 6 h, SHetA2 NCs followed a similar dissolution profile with the other two formulations."}, "[2]": {"assay": "Dissolution profile (cumulative percentage of SHetA2 dissolved)", "type": "physicochemical", "conditions": "size range 2.82-4.46 μm; level reached (NCs and NC-MPs rising until 5 h)", "from_the_text": "Cumulative percentage dissolved SHetA2 from unprocessed SHetA2, SHetA2 NCs, SHetA2 MPs, and SHetA2 NC-MPs.\nDissolution Profile of SHetA2 NC-MPs, Unprocessed SHetA2, and Spray Dried SHetA2 MPs of Size Range 2.82-4.46 μm\nThe mean cumulative percentage of SHetA2 dissolved versus time data for SHetA2 NCs, SHetA2 NC-MPs, spray dried SHetA2 MPs, and unprocessed SHetA2 is shown in FIG. 9. MPs in sizes 2.82-4.46 μm were studied, because the particles in this size range are deposited in the alveolar region of the lungs. […] The concentration of SHetA2 increased at a constant rate for SHetA2 NCs and SHetA2 NC-MPs until 5 h. […] In the case of spray dried SHetA2 MPs, there was a prompt release within the first 15 min, then SHetA2 concentration increased slowly until leveling at a cumulative percentage of 21.19±4.40%. In contrast, the unprocessed SHetA2 dissolved only 3.51±0.9%."}}}
{"smiles": "CC1(C)CC(C)(C)c2cc(NC(=S)Nc3ccc([N+](=O)[O-])cc3)ccc2S1", "note": "[unprocessed SHetA2]", "values": [{"measurement": "solubility at 5 min", "setting": "[1]", "value": "0.48 ± 0.11", "unit": "µg/mL"}, {"measurement": "cumulative percentage of SHetA2 dissolved", "setting": "[2]", "value": "3.51±0.9", "unit": "%"}]}
